# Assay results published in ChEMBL document CHEMBL4351004, “New 3-tetrazolyl-β-carbolines and β-carboline-3-carboxylates with anti-cancer activity” (2019).
# Tests used:
# Assay type in all cases: functional
# K562 = assay: Antiproliferative activity against human K562 cells assessed as growth inhibition after 48 hrs by sulforhodamine B assay; conditions: K562, 48 h
# 786-0 = assay: Antiproliferative activity against human 786-0 cells assessed as growth inhibition after 48 hrs by sulforhodamine B assay; conditions: 786-0, 48 h
# OVCAR-3 = assay: Antiproliferative activity against human OVCAR3 cells assessed as growth inhibition after 48 hrs by sulforhodamine B assay; conditions: OVCAR-3, 48 h
# [1] = Antiproliferative activity against human UACC61 cells assessed as growth inhibition after 48 hrs by sulforhodamine B assay
# NCI-H460 = assay: Antiproliferative activity against human NCI-H460 cells assessed as growth inhibition after 48 hrs by sulforhodamine B assay; conditions: NCI-H460, 48 h
# HT-29 = assay: Antiproliferative activity against human HT-29 cells assessed as growth inhibition after 48 hrs by sulforhodamine B assay; conditions: HT-29, 48 h
# NCI/ADR-RES = assay: Antiproliferative activity against human NCI-ADR-RES cells assessed as growth inhibition after 48 hrs by sulforhodamine B assay
# PC-3 = assay: Antiproliferative activity against human PC3 cells assessed as growth inhibition after 48 hrs by sulforhodamine B assay; conditions: PC-3, 48 h
# MCF7 = assay: Antiproliferative activity against human MCF7 cells assessed as growth inhibition after 48 hrs by sulforhodamine B assay; conditions: MCF7, 48 h
# U-251 = assay: Antiproliferative activity against human U251 cells assessed as growth inhibition after 48 hrs by sulforhodamine B assay; conditions: U-251, 48 h
SMILES,GI50 (K562) [µM],GI50 (786-0) [µM],GI50 (OVCAR-3) [µM],GI50 [1] [µM],GI50 (NCI-H460) [µM],GI50 (HT-29) [µM],GI50 (NCI/ADR-RES) [µM],GI50 (PC-3) [µM],GI50 (MCF7) [µM],GI50 (U-251) [µM]
COC(=O)c1cc2c([nH]c3ccccc32)c(-c2ccccc2)n1,> 100,> 100,> 100,5.45,> 100,> 100,> 100,> 100,> 100,
COC(=O)c1cc2c([nH]c3ccccc32)c(-c2ccccc2Cl)n1,13.5,42.4,21.6,5.76,26.8,25.3,27.6,22.3,36.4,
CCOC(=O)c1cc2c([nH]c3ccc(OC)cc32)c(-c2ccc(N(C)C)cc2)n1,> 100,1.4,> 100,0.28,12.7,> 100,4.29,7.74,> 100,0.95
CCOC(=O)c1cc2c([nH]c3ccc(OC)cc32)c(-c2ccc(O)cc2)n1,4.36,7.51,0.66,> 100,6.95,7.74,6.54,3.28,6.57,7.26
COc1ccc(-c2nc(-c3nnnn3Cc3ccccc3)cc3c2[nH]c2ccccc23)cc1,7.14,2.17,1.62,88.1,1.59,18.3,2.7,5.73,1.32,3.82
COC(=O)c1cc2c([nH]c3ccccc32)c(-c2ccc(OC)cc2)n1,0.04,32.7,39.4,2.61,0.38,24.8,1.11,10.2,52.7,
CCOC(=O)c1cc2c([nH]c3ccc(OC)cc32)c(-c2ccccc2)n1,> 100,> 100,> 100,> 100,> 100,> 100,> 100,> 100,79.6,> 100
CCOC(=O)c1cc2c([nH]c3ccc(C)cc32)c(-c2ccc(OC)cc2)n1,25.1,4.27,0.61,23.3,11.6,80.1,41.6,> 100,32.2,7.07
CCOC(=O)c1cc2c([nH]c3ccc(OC)cc32)c(-c2cccc([N+](=O)[O-])c2)n1,> 100,> 100,> 100,19.7,> 100,> 100,> 100,> 100,> 100,> 100
CCOC(=O)c1cc2c([nH]c3ccc(OC)cc32)c(-c2ccccc2Cl)n1,> 100,12.2,> 100,7.71,65.6,> 100,> 100,> 100,> 100,22.1
CCOC(=O)c1cc2c([nH]c3ccc(OC)cc32)c(-c2ccc(OC)cc2)n1,> 100,20.9,> 100,> 100,74.8,> 100,> 100,> 100,> 100,70.8
Fc1ccc(-c2nc(-c3nnn[nH]3)cc3c2[nH]c2ccccc23)cc1,10.7,64.5,0.27,63.3,14.8,25.6,36.6,71.8,10.1,8.17
c1ccc(Cn2nnnc2-c2cc3c([nH]c4ccccc43)c(-c3ccccc3)n2)cc1,27.4,70.6,> 100,37,31.9,> 100,71,> 100,4.4,63.5
Fc1ccc(-c2nc(-c3nnnn3Cc3ccccc3)cc3c2[nH]c2ccccc23)cc1,0.69,0.69,0.57,> 100,20.2,6.51,2.07,6.11,1.04,1.38
COC(=O)c1cc2c([nH]c3ccccc32)c(-c2cccc([N+](=O)[O-])c2)n1,3.05,31.7,> 100,7.02,> 100,> 100,> 100,> 100,> 100,
COC(=O)c1cc2c([nH]c3ccccc32)c(-c2ccc(N(C)C)cc2)n1,21.8,20.4,28.4,3.61,15.3,34,11.6,9.56,36.8,
COC(=O)c1cc2c([nH]c3ccccc32)c(-c2ccc(O)cc2)n1,> 100,29.5,21.1,12,28.5,25.1,25.7,20.7,27.5,
CCOC(=O)c1cc2c([nH]c3ccc(C)cc32)c(-c2ccccc2)n1,1.24,10.8,0.6,28.2,6.96,7.14,2.66,20.6,5.08,7.44
COc1cccc2c1C(=O)c1c(O)c3c(c(O)c1C2=O)C[C@@](O)(C(=O)CO)C[C@@H]3O[C@H]1C[C@H](N)[C@H](O)[C@H](C)O1 [DOXORUBICIN],1.11,0.15,0.0087,0.047,0.37,2.58,1.44,0.74,0.073,0.21
